Results as given in article PMC9153040 (Blood Advances, 2021).

Target: T1, ALAS2 (recombinant erythroid-specific 5-aminolevulinate synthase; hsALAS2 in transgenic MEL cells) (Homo sapiens, UniProt P22557)
T1 sequence (P22557 50-587): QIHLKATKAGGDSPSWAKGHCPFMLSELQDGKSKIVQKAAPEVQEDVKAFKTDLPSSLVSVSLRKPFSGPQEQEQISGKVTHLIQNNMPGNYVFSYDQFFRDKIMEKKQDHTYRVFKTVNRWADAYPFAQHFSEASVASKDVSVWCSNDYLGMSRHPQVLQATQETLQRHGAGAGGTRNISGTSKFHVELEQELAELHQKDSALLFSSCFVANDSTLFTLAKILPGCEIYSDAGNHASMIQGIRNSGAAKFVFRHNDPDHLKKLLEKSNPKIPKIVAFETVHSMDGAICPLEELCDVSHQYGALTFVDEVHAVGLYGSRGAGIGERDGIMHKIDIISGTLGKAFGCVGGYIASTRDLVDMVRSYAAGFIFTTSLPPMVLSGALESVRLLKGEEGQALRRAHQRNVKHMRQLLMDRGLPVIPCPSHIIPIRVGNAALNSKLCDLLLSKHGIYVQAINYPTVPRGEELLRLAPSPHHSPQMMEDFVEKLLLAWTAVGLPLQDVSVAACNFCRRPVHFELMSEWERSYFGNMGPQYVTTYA
Assay: discontinuous colorimetric assay of ALA
Format: biochemical

## C=C(CC(=O)SCCNC(=O)CCNC(=O)[C@H](O)C(C)(C)COP(=O)(O)OP(=O)(O)OC[C@H]1O[C@@H](n2cnc3c(N)ncnc32)[C@H](O)[C@@H]1OP(=O)(O)O)C(=O)O [itaconyl-CoA]
  Ki: 100 ± 20 µM
